According to patent US10370343B2, “[6,6] Fused bicyclic HDAC8 inhibitors” (FORMA Therapeutics, Inc., priority 2015, dated 2019):
Counter-ions that a name gives are not always drawn.

Target: T1, Full length human recombinant HDAC8 protein (Homo sapiens, UniProt Q9BY41)
T1 construct: Full length human recombinant HDAC8 protein was expressed in baculoviral system; made in house
T1 sequence (Q9BY41 1-377): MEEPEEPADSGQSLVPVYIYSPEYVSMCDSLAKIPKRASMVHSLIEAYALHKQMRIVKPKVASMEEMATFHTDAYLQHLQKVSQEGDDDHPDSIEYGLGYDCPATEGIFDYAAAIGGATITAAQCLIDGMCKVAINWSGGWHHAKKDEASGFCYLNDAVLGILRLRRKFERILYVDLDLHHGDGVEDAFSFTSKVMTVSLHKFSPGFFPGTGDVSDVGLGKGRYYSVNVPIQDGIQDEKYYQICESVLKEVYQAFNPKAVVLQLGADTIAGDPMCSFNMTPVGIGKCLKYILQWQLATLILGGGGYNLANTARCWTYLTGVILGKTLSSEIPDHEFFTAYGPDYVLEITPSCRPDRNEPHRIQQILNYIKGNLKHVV
Experiment: In vitro histone deacetylase assay: enzymatic HDAC8 electrophoretic mobility shift assay
Format: biochemical
Conditions: electrophoretic mobility shift assay; enzyme 1 nM; 2 μM fluorescently labeled peptide substrate RHKK(Ac)-NH2; 25° C.; 12 concentrations; read-out: HDAC8 IC50
Experimental: The enzymatic HDAC8 assay was performed using electrophoretic mobility shift assay. Full length human recombinant HDAC8 protein was expressed in baculoviral system and purified by affinity chromatography. The enzymatic reactions were assembled in 384 well plates in a total volume of 25 μL in a reaction buffer composing: 100 mM HEPES, pH7.5, 25 mM KCl, 0.1% bovine serum albumin, 0.01% Triton X-100, 1% DMSO (from compounds) 2 μM of the fluorescently labeled peptide substrate and enzyme. The enzyme was added at a final concentration of 1 nM. The peptide substrate RHKK(Ac)—NH2 was used. The compounds were tested at 12 concentrations spaced by 3× dilution intervals. Negative control samples (0%-inhibition in the absence of inhibitor) and positive control samples (100%-inhibition) were assembled in replicates of four in each assay plate. The reactions were incubated at 25° C. and quenched by the addition of 45 μL of termination buffer (100 mM HEPES, pH 7.5, 0.01% Triton X-100, 0.05% SDS).
The terminated assay plates were analyzed on LabChip® 3000 microfluidic electrophoresis instrument (Perkin Elmer/Caliper Life Sciences). The fluorescence intensity of the electrophoretically separated de-acetylated product and substrate peptide was measured. Activity in each sample was determined as the product to sum ratio (PSR): P/(S+P), where P is the peak height of the product peptide and S is the peak height of the substrate peptide. Percent inhibition (Pinh) is determined using the following equation: Pinh=(PSR0%−PSRinh)/(PSR0%−PSR100%)*100, where PSRinh is the product sum ratio in the presence of inhibitor, PSR0% is the average product sum ration in the absence of inhibitor and PSR100% is the average product sum ratio in 100%-inhibition control samples. The IC50 values of inhibitors were determined by fitting the %-inhibition curves with 4 parameter dose-response model using XLfit 4 software.

Row | SMILES | IC50 [nM]
1 | COc1cccc(CN2CCOc3ccc(C(=O)NO)cc32)c1 [Compound I-121, N-hydroxy-4-(3-methoxybenzyl)-3,4-dihydro-2H-benzo[b][1,4]oxazine-6-carboxamide] | 25 to 100
2 | COc1ccc(CN2C(=O)C(CCN(C)C)Oc3ccc(C(=O)NO)cc32)cc1 (stereo not drawn) [Compound I-105, 2-(2-(dimethylamino)ethyl)-N-hydroxy-4-(4-methoxybenzyl)-3-oxo-3,4-dihydro-2H-benzo[b][1,4]oxazine-6-carboxamide] | 25 to 100
3 | O=C(NO)c1ccc2c(c1)N(Cc1cccc(C(F)(F)F)c1)CCO2 [Compound I-124, N-hydroxy-4-(3-(trifluoromethyl)benzyl)-3,4-dihydro-2H-benzo[b][1,4]oxazine-6-carboxamide] | < 25
4 | CC1CN(Cc2ccc(S(C)(=O)=O)cc2)c2cc(C(=O)NO)ccc2O1 (stereo not drawn) [Compound I-85, N-hydroxy-2-methyl-4-(4-(methylsulfonyl)benzyl)-3,4-dihydro-2H-benzo[b][1,4]oxazine-6-carboxamide] | 100 to 1000
5 | O=C(NO)c1ccc2c(c1)N(C(=O)N1CCCCC1)CCO2 [Compound I-97, N-hydroxy-4-(piperidine-1-carbonyl)-3,4-dihydro-2H-benzo[b][1,4]oxazine-6-carboxamide] | > 1000
6 | Cc1ccc(CN2CCOc3ccc(C(=O)NO)cc32)cc1 [Compound I-117, N-hydroxy-4-(4-methylbenzyl)-3,4-dihydro-2H-benzo[b][1,4]oxazine-6-carboxamide] | 100 to 1000
7 | O=C(NO)c1ccc2c(c1)N(Cc1ccccc1OC(F)(F)F)C(=O)CO2 [Compound I-66, N-hydroxy-3-oxo-4-(2-(trifluoromethoxy)benzyl)-3,4-dihydro-2H-benzo[b][1,4]oxazine-6-carboxamide] | 100 to 1000
8 | COCCn1c(CN2CCOc3ccc(C(=O)NO)cc32)nc2ccccc21 [Compound I-29, N-hydroxy-4-((1-(2-methoxyethyl)-1H-benzo[d]imidazol-2-yl)methyl)-3,4-dihydro-2H-benzo[b][1,4]oxazine-6-carboxamide] | 100 to 1000
9 | O=C(NO)c1ccc2c(c1)OCCN2c1nc2ccccc2[nH]1 [Compound I-109, 4-(1H-benzo[d]imidazol-2-yl)-N-hydroxy-3,4-dihydro-2H-benzo[b][1,4]oxazine-7-carboxamide] | > 1000
10 | O=C(NO)c1ccc2c(c1)N(c1nc3ccccc3[nH]1)CCO2 [Compound I-108, 4-(1H-benzo[d]imidazol-2-yl)-N-hydroxy-3,4-dihydro-2H-benzo[b][1,4]oxazine-6-carboxamide] | > 1000
11 | CN1CC(C(=O)N2CC3(CC3)c3ccccc32)Oc2ccc(C(=O)NO)cc21 (stereo not drawn) [Compound I-3, N-hydroxy-4-methyl-2-(spiro[cyclopropane-l,3′-indoline]-1′-carbonyl)-3,4-dihydro-2H-benzo[b][1,4]oxazine-6-carboxamide hydrochloride] | 100 to 1000
12 | O=C(NO)c1ccc2c(c1)N(Cc1ccc(F)c(F)c1)C(=O)CO2 [Compound I-71, 4-(3,4-difluorobenzyl)-N-hydroxy-3-oxo-3,4-dihydro-2H-benzo[b][1,4]oxazine-6-carboxamide] | < 25
13 | O=C(NO)c1ccc2c(c1)N(CC(=O)N1CCOCC1)CCO2 [Compound I-26, N-hydroxy-4-(2-morpholino-2-oxoethyl)-3,4-dihydro-2H-benzo[b][1,4]oxazine-6-carboxamide] | > 1000
14 | C=CCN1C(=O)COc2ccc(C(=O)NO)cc21 [Compound I-41, 4-allyl-N-hydroxy-3-oxo-3,4-dihydro-2H-benzo[b][1,4]oxazine-6-carboxamide] | 100 to 1000
15 | O=C(NO)c1ccc2c(c1)N(Cc1cccc(C(F)(F)F)c1)CCS2(=O)=O [Compound I-81, N-hydroxy-4-(3-(trifluoromethyl)benzyl)-3,4-dihydro-2H-benzo[b][1,4]thiazine-6-carboxamide-1,1-dioxide] | < 25
16 | O=C(NO)c1ccc2c(c1)N(Cc1cccc(-c3ccccc3)c1)C(=O)CO2 [Compound I-75, 4-([1,1′-biphenyl]-3-ylmethyl)-N-hydroxy-3-oxo-3,4-dihydro-2H-benzo[b][1,4]oxazine-6-carboxamide] | < 25
17 | O=C(NO)c1ccc2c(c1)N(C1CCCC1)C(=O)CO2 [Compound I-42, 4-cyclopentyl-N-hydroxy-3-oxo-3,4-dihydro-2H-benzo[b][1,4]oxazine-6-carboxamide] | 100 to 1000

Row | SMILES | IC50 [nM]
18 | CN1CC(C(=O)NC2CCOCC2)Oc2cc(C(=O)NO)ccc21 (stereo not drawn) [Compound I-7, N^7-hydroxy-4-methyl-N^2-(tetrahydro-2H-pyran-4-yl)-3,4-dihydro-2H-benzo[b][1,4]oxazine-2,7-dicarboxamide] | 100 to 1000
19 | COc1ccc(CN2CCOc3ccc(C(=O)NO)cc32)cc1S(C)(=O)=O [Compound I-139, N-hydroxy-4-(4-methoxy-3-(methylsulfonyl)benzyl)-3,4-dihydro-2H-benzo[b][1,4]oxazine-6-carboxamide] | 25 to 100
20 | O=C(NO)c1ccc2c(c1)N(Cc1cccc(F)c1)CCO2 [Compound I-24, 4-(3-fluorobenzyl)-N-hydroxy-3,4-dihydro-2H-benzo[b][1,4]oxazine-6-carboxamide] | < 25
21 | C#CCN1C(=O)COc2ccc(C(=O)NO)cc21 [Compound I-40, N-hydroxy-3-oxo-4-(prop-2-yn-1-yl)-3,4-dihydro-2H-benzo[b][1,4]oxazine-6-carboxamide] | 100 to 1000
22 | O=C(NO)c1ccc2c(c1)N(CC1CCCCC1)CCO2 [Compound I-133, 4-(cyclohexylmethyl)-N-hydroxy-3,4-dihydro-2H-benzo[b][1,4]oxazine-6-carboxamide] | 25 to 100
23 | O=C(NO)c1ccc2c(c1)N(Cc1cccc(Cl)c1)CCO2 [Compound I-123, 4-(3-chlorobenzyl)-N-hydroxy-3,4-dihydro-2H-benzo[b][1,4]oxazine-6-carboxamide] | 25 to 100
24 | CC1Oc2cc(C(=O)NO)ccc2N(Cc2ccc(S(C)(=O)=O)cc2)C1=O (stereo not drawn) [Compound I-92, N-hydroxy-2-methyl-4-(4-(methylsulfonyl)benzyl)-3-oxo-3,4-dihydro-2H-benzo[b][1,4]oxazine-7-carboxamide] | 100 to 1000
25 | COc1ccc(C(=O)N2CCOc3ccc(C(=O)NO)cc32)cc1 [Compound I-113, N-hydroxy-4-(4-methoxybenzoyl)-3,4-dihydro-2H-benzo[b][1,4]oxazine-6-carboxamide] | > 1000
26 | O=C(NO)c1ccc2c(c1)N(Cc1ccccc1Cl)CCO2 [Compound I-128, 4-(2-chlorobenzyl)-N-hydroxy-3,4-dihydro-2H-benzo[b][1,4]oxazine-6-carboxamide] | < 25
27 | CN1CC(C(=O)NCc2ccccc2)Oc2cc(C(=O)NO)ccc21 (stereo not drawn) [Compound I-11, N^2-benzyl-N^7-hydroxy-4-methyl-3,4-dihydro-2H-benzo[b][1,4]oxazine-2,7-dicarboxamide] | 25 to 100
28 | COCCn1c(N2CCCc3cc(C(=O)NO)ccc32)nc2ccccc21 [Compound I-111, N-hydroxy-1-(1-(2-methoxyethyl)-1H-benzo[d]imidazol-2-yl)-1,2,3,4-tetrahydroquinoline-6-carboxamide] | 100 to 1000
29 | O=C(NO)c1ccc2c(c1)N(Cc1nc3ccccc3n1CC1CC1)C(=O)CO2 [Compound I-279, 4-((1-(cyclopropylmethyl)-1H-benzo[d]imidazol-2-yl)methyl)-N-hydroxy-3-oxo-3,4-dihydro-2H-benzo[b][1,4]oxazine-6-carboxamide] | 100 to 1000
30 | COCCN1C(=O)COc2ccc(C(=O)NO)cc21 [Compound I-43, N-hydroxy-4-(2-methoxyethyl)-3-oxo-3,4-dihydro-2H-benzo[b][1,4]oxazine-6-carboxamide] | 100 to 1000
31 | COc1ccc(CN2CC(C)Oc3ccc(C(=O)NO)cc32)cc1 (stereo not drawn) [Compound I-84, N-hydroxy-4-(4-methoxybenzyl)-2-methyl-3,4-dihydro-2H-benzo[b][1,4]oxazine-6-carboxamide] | 25 to 100
32 | O=C(NO)c1ccc2c(c1)N(Cc1cccc(OC(F)F)c1)CCO2 [Compound I-132, 4-(3-(difluoromethoxy)benzyl)-N-hydroxy-3,4-dihydro-2H-benzo[b][1,4]oxazine-6-carboxamide] | < 25
33 | O=C(NO)c1ccc2c(c1)N(Cc1ccccc1C(F)(F)F)CCO2 [Compound I-129, N-hydroxy-4-(2-(trifluoromethyl)benzyl)-3,4-dihydro-2H-benzo[b][1,4]oxazine-6-carboxamide] | 100 to 1000
